# PMC5668434, “Modulation of telomere protection by the PI3K/AKT pathway” (Nature Communications, 2017)
# Legend:
# [1] = target: T1, mTOR (FRAP1) (Homo sapiens, UniProt P42345); experiment: mTOR biochemical assay (LanthaScreen); conditions: as given in the text
# T1 construct: purchased ThermoFisher PV4753
# [2] = test system: TRF1 foci in CHA-9.3 mouse lung tumor cell line; experiment: TRF1 foci immunofluorescence in CHA-9.3 cells; type: cell-based; conditions: Mus musculus; 10 μM; 24 h; CHA-9.3; relative to DMSO; read-out: Inhibition of TRF1 foci fluorescence
# Experimental: TRF1 immunofluorescence of TRF1 was performed in lung tumor-derived cell line (CHA9.3) and in MEFs[39]. A rat monoclonal antibody against mouse TRF1 developed by the Monoclonal antibody unit at CNIO was used to detect endogenous TRF1 (1:500). GFP-TRF1 fluorescence was directly measured in cells fixed in paraformaldehyde. For quantification of TRF1 foci intensity, pictures of fixed cells were automatically acquired from each well by the Opera HCS system (Perkin Elmer). Sixty images of random fields per well, with a 40× magnification lens, were taken under non-saturating conditions. At least 1 × 10^3 cells were analyzed for each well. Briefly, images were segmented using the DAPI staining to generate masks matching cell nuclei from which-TRF1 foci were analyzed.
# [3] = test system: telomeric TRF1 in ER/Her2-positive breast cancer PDXs; experiment: Telomeric TRF1 foci (immuno-FISH) in breast cancer PDXs; type: in vivo, mouse; conditions: BYL719 35 mg/kg QD 6 days/week, 12 days
# Experimental: (§1) To this end, we generated PDXs from seven independent ER/Her2-positive breast cancer patients in female athymic NMRI nu/nu mice, and treated these with either the PI3Kα specific inhibitor BYL719 (35 mg/k 6IW) or with vehicle during a total of 12 days. Mice were then killed and PDXs extracted and formalin fixed for further analysis. A TRF1 immunofluorescence followed by a telomere quantitative q-FISH was performed in PDXs sections to identify TRF1 specifically located at telomeres by co-localization of TRF1 protein to telomeric DNA, as well as to quantify telomere length. […] Immunohistochemistry staining of phosphorylated AKT (S473) in these same PDXs followed by quantification of tumor positive area was performed to address the efficacy of BYL719 treatment (Fig. 8c, d). […]
# (§2) An immune-Fish was performed in formalin-fixed paraffin-embedded PDXs sections to identify telomeric TRF1 and quantify telomere length. TRF1 foci were detected by immunofluorescence as described above. Quantitative FISH was performed as follows: samples were permeabilized for 2 h in PBS-5% Triton, blocked for 1 h with 5% BSA in PBS, and immunofluorescence with TRF1 homemade rat TRF1 antibody diluted 1:500 was performed. […] Maximal projection of Z-stack images generated using advanced fluorescence software (LAS) was analyzed with the Definiens XD software package. […]
# [4] = test system: pAKT (S473) in ER/Her2-positive breast cancer PDXs; experiment: pAKT (S473) immunohistochemistry in breast cancer PDXs; type: in vivo, mouse; conditions: 12 days
# Experimental: To this end, we generated PDXs from seven independent ER/Her2-positive breast cancer patients in female athymic NMRI nu/nu mice, and treated these with either the PI3Kα specific inhibitor BYL719 (35 mg/k 6IW) or with vehicle during a total of 12 days. Mice were then killed and PDXs extracted and formalin fixed for further analysis. A TRF1 immunofluorescence followed by a telomere quantitative q-FISH was performed in PDXs sections to identify TRF1 specifically located at telomeres by co-localization of TRF1 protein to telomeric DNA, as well as to quantify telomere length. Telomeric TRF1 foci at telomeres (green spots) were unequivocally identified by co-localization with telomeric PNA probe (red spots) (Fig. 8a). […] Immunohistochemistry staining of phosphorylated AKT (S473) in these same PDXs followed by quantification of tumor positive area was performed to address the efficacy of BYL719 treatment (Fig. 8c, d). […] These four PDXs were considered as “responders” to the PI3Kαi treatment. […] This unexpected increase in pAKT levels of PDX191 upon BYL719 treatment could be explained by the activation of regulatory feedback loops that trigger compensatory signaling events leading to activation of the AKT pathway. These three PDX (PDX131, PDX39, PDX191) were considered as “non-responders” to the treatment with the PI3Kα inhibitor BYL719. […] It should be pointed out that untreated PDX131 and PDX39 that presented undetectable pAKT levels correspond to those samples with the lowest telomeric TRF1 levels (Fig. 8b, d). […] In addition, the telomere length changes were more moderate as compared to changes observed in TRF1 levels.
# Experiments were conducted following the European Union’s animal care directive (86/609/EEC) and were approved by the Ethical Committee of Animal Experimentation of the Vall d’Hebron Research Institute and patient consent. Fresh primary or metastatic human breast tumors were obtained from patients at time of surgery or biopsy. […]
# [5] = test system: ER/Her2-positive breast cancer PDXs; experiment: Mean telomere length by Q-FISH in PDXs; type: in vivo, mouse; conditions: seven PDXs; 12 days
# Experimental: as §1, §2
# [6] = test system: ER/Her2-positive breast cancer PDXs; experiment: γH2AX and telomere-induced foci (TIFs) in PDXs; type: in vivo, mouse; conditions: 12 days
# Experimental: We also observed a higher number of telomere-induced DNA damage foci (TIFs) in the BYL719-treated “responder” tumors than in the “non-responders” (Fig. 8h, i), in agreement with lower levels of telomere bound TRF1 levels in the “responders” (Fig. 8b, d).
# Formalin-fixed paraffin-embedded PDXs sections were permeabilized with 0.5% PBS-Triton for 1 h and blocked first with fetal bovine serum for 2 h and then in 5% BSA for 2 h. Samples were incubated O/N at 4 °C with the primary antibody. Antibodies used were anti-TRF1 (1:200) (TRF-78, ABCAM, ab10579), anti-RAP1 (1:300) (Bethyl Laboratories, A300-306A), and anti-phospho-histone2 H2AX-Ser139 (γH2AX) (1:300) (Millipore, 05-636). Slides were further incubated with 488-Alexa or 555-Alexa labeled secondary antibodies. Nuclei were counterstained in a 4 µg/ml 4′,6-[…]-2-phenylindole (DAPI)/PBS solution before mounting with Vectashield.
# [7] = test system: PI3Kα; conditions: reported in literature; cited from earlier work
# [8] = test system: PI3Kβ; conditions: reported in literature; cited from earlier work
# [9] = test system: PI3Kδ; conditions: reported in literature; cited from earlier work
# [10] = test system: PI3Kγ; conditions: reported in literature; cited from earlier work
# [11] = test system: mTOR; conditions: reported in literature; cited from earlier work
# T1 sequence (P42345 1360-2549 limits assumed): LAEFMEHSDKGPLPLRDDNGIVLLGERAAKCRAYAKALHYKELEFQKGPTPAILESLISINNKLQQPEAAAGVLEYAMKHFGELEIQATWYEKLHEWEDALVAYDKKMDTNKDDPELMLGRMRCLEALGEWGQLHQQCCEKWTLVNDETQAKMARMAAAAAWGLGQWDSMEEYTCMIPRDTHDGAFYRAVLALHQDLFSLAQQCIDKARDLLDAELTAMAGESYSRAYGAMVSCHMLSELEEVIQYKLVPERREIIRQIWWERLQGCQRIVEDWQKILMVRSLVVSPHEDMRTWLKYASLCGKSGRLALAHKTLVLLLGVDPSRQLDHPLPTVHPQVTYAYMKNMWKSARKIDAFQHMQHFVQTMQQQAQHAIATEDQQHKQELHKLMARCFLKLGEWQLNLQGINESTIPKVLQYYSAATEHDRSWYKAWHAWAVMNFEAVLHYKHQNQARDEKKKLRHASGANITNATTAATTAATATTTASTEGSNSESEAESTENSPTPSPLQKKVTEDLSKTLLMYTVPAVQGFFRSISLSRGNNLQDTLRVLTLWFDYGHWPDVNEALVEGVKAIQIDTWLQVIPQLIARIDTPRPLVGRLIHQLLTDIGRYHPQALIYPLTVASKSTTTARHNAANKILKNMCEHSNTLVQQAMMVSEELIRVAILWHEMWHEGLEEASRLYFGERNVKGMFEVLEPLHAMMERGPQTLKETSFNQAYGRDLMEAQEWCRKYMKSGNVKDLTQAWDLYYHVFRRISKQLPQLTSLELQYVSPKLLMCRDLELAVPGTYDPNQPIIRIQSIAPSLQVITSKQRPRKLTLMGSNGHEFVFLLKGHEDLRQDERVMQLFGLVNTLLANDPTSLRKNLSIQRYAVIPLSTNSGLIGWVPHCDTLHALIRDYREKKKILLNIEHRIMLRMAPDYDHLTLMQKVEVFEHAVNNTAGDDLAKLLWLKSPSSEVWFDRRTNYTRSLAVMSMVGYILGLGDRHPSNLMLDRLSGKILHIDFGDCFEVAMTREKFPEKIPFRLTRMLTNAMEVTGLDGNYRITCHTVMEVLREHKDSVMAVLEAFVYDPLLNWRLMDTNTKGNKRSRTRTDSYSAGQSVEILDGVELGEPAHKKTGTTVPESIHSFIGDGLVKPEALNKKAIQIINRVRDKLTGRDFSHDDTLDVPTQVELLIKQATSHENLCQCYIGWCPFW
smiles,measurement,setting,value
Cc1nc(NC(=O)N2CCC[C@H]2C(N)=O)sc1-c1ccnc(C(C)(C)C(F)(F)F)c1 [BYL-719],IC50,[1],> 10000 nM
same,inhibition at 10 µM,[2],30%
same,Telomeric TRF1 levels vs vehicle (in words),[3]; PDX98,remained unchanged
same,"Telomeric TRF1 spot intensity, percent change vs vehicle (↑ increase)",[3]; PDX191,80%
same,pAKT levels upon treatment (in words),[4]; PDX39 (negative for pAKT at basal levels),remained unchanged
same,pAKT levels upon treatment (in words),[4]; PDX131 (negative for pAKT at basal levels),remained unchanged
same,"pAKT (S473) positive tumor area, percent change vs vehicle (↑ increase)","[4]; PDX191, BYL719 35 mg/kg QD 6 days/week",46%
same,Mean telomere length upon treatment (in words),[5],moderate but significant changes
same,"Telomere-induced DNA damage foci (TIFs), responders vs non-responders",[6]; BYL719-treated PDXs,higher number
same,Cells presenting DNA damage (γH2AX positive cells),[6]; responder PDXs,significant increase
same,IC50,[8],1200 nM
same,IC50,[9],290 nM
same,IC50,[10],250 nM
same,IC50,[11],> 9100 nM
